This passage reports IC50 results from patent publication US7989633B2, “4-Chromenonyl-1,4-dihydropyridines and their use” (Bayer Schering Pharma Aktiengesellschaft, priority 2005, dated 2011).

As usually defined, the IC50 is the concentration needed to halve the response being measured.

The experiment addresses T1, human mineralocorticoid receptor (MR) (Homo sapiens, UniProt P08235).
T1 construct: expressed in transfected cells
T1 sequence (P08235 734-984 limits assumed): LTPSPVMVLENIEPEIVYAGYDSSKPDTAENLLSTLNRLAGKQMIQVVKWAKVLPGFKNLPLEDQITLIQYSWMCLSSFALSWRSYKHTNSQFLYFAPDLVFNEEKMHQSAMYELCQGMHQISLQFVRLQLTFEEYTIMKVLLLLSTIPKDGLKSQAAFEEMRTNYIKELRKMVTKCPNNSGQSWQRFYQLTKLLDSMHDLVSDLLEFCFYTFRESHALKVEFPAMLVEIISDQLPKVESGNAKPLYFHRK
Description: Cellular in vitro assay to determine the inhibitory MR activity (GAL4-MR chimera luciferase reporter in CHO K1 cells). The experiment is classed as cell-based. As to conditions: GAL4-MR ligand-binding domain chimera in CHO K1 cells, agonist aldosterone. The text has this:
1. Cellular In Vitro Assay to Determine the Inhibitory MR Activity and MR Selectivity Compared with Other Steroid Hormone Receptors
Antagonists of the human mineralocorticoid receptor (MR) are identified, and the activity of the compounds described herein is quantified with the aid of a recombinant cell line. The cell is originally derived from a hamster ovary epithelial cell (Chinese Hamster Ovary, CHO K1, ATCC: American Type Culture Collection, VA 20108, USA).
An established chimera system in which the ligand-binding domains of human steroid hormone receptors are fused to the DNA-binding domain of the yeast transcription factor GAL4 is used in this CHO K1 cell line. The GAL4-steroid hormone receptor chimeras produced in this way are cotransfected and stably expressed with a reporter construct in the CHO cells.
To generate the GAL4-steroid hormone receptor chimeras, the GAL4 DNA binding domain (amino acids 1-147) from the vector pFC2-dbd (from Stratagene) is cloned with the PCR-amplified ligand-binding domains of the mineralocorticoid receptor (MR, amino acids 734-985), of the glucocorticoid receptor (GR, amino acids 443-777), of the progesterone receptor (PR, amino acids 680-933) and of the androgen receptor (AR, amino acids 667-919) into the vector pIRES2 (from Clontech). The reporter construct, which comprises five copies of the GAL4 binding site upstream of a thymidine kinase promoter, leads to expression of firefly-luciferase (Photinus pyralis) after activation and binding of the GAL4-steroid hormone receptor chimeras by the respective specific agonists aldosterone (MR), dexamethasone (GR), progesterone (PR) and dihydrotestosterone (AR).
The MR, GR, PR and AR cells are plated out in medium (Optimem, 2.5% FCS, 2 mM glutamine, 10 mM HEPES) in 96- (or 384- or 1536-) well microtiter plates on the day before the assay and are kept in a cell incubator (96% humidity, 5% v/v CO2, 37° C.). On the day of the assay, the substances to be tested are taken up in the abovementioned medium and added to the cells. About 10 to 30 minutes after addition of the test substances, the respective specific agonists of the steroid hormone receptors are added. After a further incubation time of 5 to 6 hours, the luciferase activity is measured with the aid of a video camera. The measured relative light units as a function of the substance concentration result in a sigmoidal stimulation curve. The IC50 values are calculated with the aid of the GraphPad PRISM computer program (Version 3.02).
`CCOC(=O)C1=C(C)NC(C)=C(C(C)=O)C1c1cccc2c(=O)cc(C)oc12` (single isomer, unassigned) [Example 1 (Enantiomer 2), Ethyl 5-acetyl-2,6-dimethyl-4-(2-methyl-4-oxo-4H-chromen-8-yl)-1,4-dihydropyridine-3-carboxylate] yielded an IC50 of 43 nM.

Compound `CC(=O)C1=C(C)NC(C)=C(C(=O)OC(C)C)C1c1cccc2c(=O)cc(C)oc12` (stereo not shown) [Example 3, Isopropyl 5-acetyl-2,6-dimethyl-4-(2-methyl-4-oxo-4H-chromen-8-yl)-1,4-dihydropyridine-3-carboxylate] yielded an IC50 of 39 nM.

Take `COC(=O)C1=C(C)NC(C)=C(C(C)=O)C1c1cccc2c(=O)cc(C)oc12` (stereo not shown) [Example 4, Methyl 5-acetyl-2,6-dimethyl-4-(2-methyl-4-oxo-4H-chromen-8-yl)-1,4-dihydropyridine-3-carboxylate]: the IC50 amounted to 235 nM. Against the preceding compound, the IC50 is about 6-fold higher.

For `CCOC(=O)C1=C(C)NC(C)=C(C(C)=O)C1c1cccc2c(=O)cc(C)oc12` (racemic) [Example 1 (Racemate), Ethyl 5-acetyl-2,6-dimethyl-4-(2-methyl-4-oxo-4H-chromen-8-yl)-1,4-dihydropyridine-3-carboxylate], the IC50 was determined as 75 nM.

Take `COC(=O)C1=C(C)NC(C)=C(C(=O)CC2CCC2)C1c1cccc2c(=O)cc(C)oc12` (stereo not shown) [Example 34, Methyl 5-(cyclobutylacetyl)-2,6-dimethyl-4-(2-methyl-4-oxo-4H-chromen-8-yl)-1,4-dihydro-pyridine-3-carboxylate]: the IC50 came out at 18 nM.

Take `CCOC(=O)C1=C(C)NC(C)=C(C(=O)c2ccccc2)C1c1cccc2c(=O)cc(C)oc12` (stereo not shown) [Example 14, Ethyl 5-benzoyl-2,6-dimethyl-4-(2-methyl-4-oxo-4H-chromen-8-yl)-1,4-dihydropyridine-3-carboxylate]: the IC50 came out at 104 nM.

`CC(=O)C1=C(C)NC(C)=C(C(=O)OC2CCCC2)C1c1cccc2c(=O)cc(C)oc12` (stereo not shown) [Example 2, Cyclopentyl 5-acetyl-2,6-dimethyl-4-(2-methyl-4-oxo-4H-chromen-8-yl)-1,4-dihydropyridine-3-carboxylate]: the IC50 came out at 22 nM.

As for `COC(=O)C1=C(C)NC(C)=C(C(=O)c2ccc(C)cc2)C1c1cccc2c(=O)cc(C)oc12` (stereo not shown) [Example 37, Methyl 2,6-dimethyl-5-(4-methylbenzoyl)-4-(2-methyl-4-oxo-4H-chromen-8-yl)-1,4-dihydro-pyridine-3-carboxylate], the IC50 came to 27 nM.

In the case of `CCOC(=O)C1=C(C)NC(C)=C(C(C)=O)C1c1ccc(F)c2c(=O)cc(C)oc12` (stereo not shown) [Example 11, Ethyl 5-acetyl-2,6-dimethyl-4-(5-fluoro-2-methyl-4-oxo-4H-chromen-8-yl)-1,4-dihydropyridine-3-carboxylate], the IC50 was determined as 74 nM.

Turning to `CC1=C(C(=O)OC(C)C)C(c2cccc3c(=O)cc(C)oc23)C(C(=O)C(F)(F)F)=C(C)N1` (stereo not shown) [Example 8, Isopropyl 2,6-dimethyl-4-(2-methyl-4-oxo-4H-chromen-8-yl)-5-(trifluoroacetyl)-1,4-dihydro-pyridine-3-carboxylate], the IC50 was determined as 19 nM.
